Test results: PubChem BioAssay AID248 (DTP/NCI, 2004)
“And” between values parts separate entries of the source, which are not always exact repeats. Equal entries are not always repeated. Inconclusive results and toxic doses are left out.

Test system: L1210 leukemia ip in BDF1 mice, survival T/C
Assay: NCI In Vivo Anticancer Drug Screen. Data for tumor model L1210 Leukemia (intraperitoneal) in B6D2F1 (BDF1) mice
Conditions: endpoint: mean survival time, higher = longer survival
In short: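 Survival endpoint. Drug-treated group vs vehicle group, expressed as T divided by C. Tumor passaged by transplantation.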

[1] = dose: 100.0 mg/kg/injection, schedule: Q01DX001 (ip), vehicle: Klucel (hydroxypropylcellulose) (HPC)
[2] = dose: 100.0 mg/kg/injection, schedule: Q01DX009 (ip), vehicle: Klucel (hydroxypropylcellulose) (HPC)
[3] = dose: 100.0 mg/kg/injection, schedule: Q04DX003 (ip), vehicle: Klucel (hydroxypropylcellulose) (HPC)
[4] = dose: 200.0 mg/kg/injection, schedule: Q01DX001 (ip), vehicle: Klucel (hydroxypropylcellulose) (HPC)
[5] = dose: 200.0 mg/kg/injection, schedule: Q04DX003 (ip), vehicle: Klucel (hydroxypropylcellulose) (HPC)
[6] = dose: 400.0 mg/kg/injection, schedule: Q01DX001 (ip), vehicle: Klucel (hydroxypropylcellulose) (HPC)
[7] = dose: 400.0 mg/kg/injection, schedule: Q04DX003 (ip), vehicle: Klucel (hydroxypropylcellulose) (HPC)
[8] = dose: 100.0 mg/kg/injection, schedule: Q01DX009 (ip), vehicle: other
[9] = dose: 200.0 mg/kg/injection, schedule: Q01DX009 (ip), vehicle: other

## c1ccc(Cc2cc(-c3ccccc3)n[nH]2)cc1
[1]
  T/C: 100 % of control
[2]
  T/C: 110 % of control
[3]
  T/C: 100 % of control
[4]
  T/C: 101 % of control
dose: 200.0 mg/kg/injection, schedule: Q01DX009 (ip), vehicle: Klucel (hydroxypropylcellulose) (HPC)
  T/C: 96 % of control
[5]
  T/C: 93 % of control
[6]
  T/C: 103 % of control
dose: 400.0 mg/kg/injection, schedule: Q01DX009 (ip), vehicle: Klucel (hydroxypropylcellulose) (HPC)
  T/C: 100 % of control
[7]
  T/C: 98 % of control

## N#C/C(=C\c1ccc(-c2ccccc2)cc1)c1ccc([N+](=O)[O-])cc1
dose: 12.5 mg/kg/injection, schedule: Q01DX009 (ip), vehicle: saline with Tween-80
  T/C: 90 % of control
dose: 12.5 mg/kg/injection, schedule: Q04DX003 (ip), vehicle: saline with Tween-80
  T/C: 95 % of control
dose: 25.0 mg/kg/injection, schedule: Q01DX009 (ip), vehicle: saline with Tween-80
  T/C: 88 % of control
dose: 25.0 mg/kg/injection, schedule: Q04DX003 (ip), vehicle: saline with Tween-80
  T/C: 93 % of control
dose: 50.0 mg/kg/injection, schedule: Q04DX003 (ip), vehicle: saline with Tween-80
  T/C: 88 % of control

## CC12CC(Br)C(Br)CC1(C)O2 (stereo not given)
dose: 25.0 mg/kg/injection, schedule: Q04DX002 (ip), vehicle: gum acacia
  T/C: 96 % of control
dose: 50.0 mg/kg/injection, schedule: Q04DX002 (ip), vehicle: gum acacia
  T/C: 100 % of control
dose: 100.0 mg/kg/injection, schedule: Q04DX002 (ip), vehicle: gum acacia
  T/C: 104 % of control

## CCCCCCCCCCCCCCCCCCNC(=O)c1c(Br)c(Br)cc(Br)c1C(=O)O
dose: 25.0 mg/kg/injection, schedule: Q04DX002 (ip), vehicle: Klucel (hydroxypropylcellulose) (HPC)
  T/C: 104 % of control
dose: 50.0 mg/kg/injection, schedule: Q04DX002 (ip), vehicle: Klucel (hydroxypropylcellulose) (HPC)
  T/C: 93 % of control
dose: 100.0 mg/kg/injection, schedule: Q04DX002 (ip), vehicle: Klucel (hydroxypropylcellulose) (HPC)
  T/C: 96 % of control
dose: 200.0 mg/kg/injection, schedule: Q04DX002 (ip), vehicle: Klucel (hydroxypropylcellulose) (HPC)
  T/C: 98 % of control and 87 % of control
dose: 400.0 mg/kg/injection, schedule: Q04DX002 (ip), vehicle: Klucel (hydroxypropylcellulose) (HPC)
  T/C: 90 % of control

## Nc1nc(N)c(CCCCc2ccccc2)c(C=O)n1
[2]
  T/C: 98 % of control

## CCOC(=O)c1cnc(SC)nc1Nc1ccccc1Cl
dose: 100.0 mg/kg/injection, schedule: Q04DX003 (ip), vehicle: saline with Tween-80
  T/C: 87 % of control
dose: 200.0 mg/kg/injection, schedule: Q04DX003 (ip), vehicle: saline with Tween-80
  T/C: 87 % of control

## COc1ccc(/C=C/c2c3cc(OC)c(OC)cc3cc3c4cc(OC)c(OC)cc4cc[n+]23)cc1OC
dose: 100.0 mg/kg/injection, schedule: Q01DX001 (ip), vehicle: carboxymethylcellulose (CMC)
  T/C: 93 % of control and 108 % of control
dose: 100.0 mg/kg/injection, schedule: Q04DX002 (ip), vehicle: carboxymethylcellulose (CMC)
  T/C: 96 % of control and 89 % of control
dose: 100.0 mg/kg/injection, schedule: Q04DX003 (ip), vehicle: carboxymethylcellulose (CMC)
  T/C: 97 % of control
dose: 200.0 mg/kg/injection, schedule: Q01DX001 (ip), vehicle: carboxymethylcellulose (CMC)
  T/C: 97 % of control and 100 % of control
dose: 200.0 mg/kg/injection, schedule: Q04DX002 (ip), vehicle: carboxymethylcellulose (CMC)
  T/C: 100 % of control and 87 % of control
dose: 200.0 mg/kg/injection, schedule: Q04DX003 (ip), vehicle: carboxymethylcellulose (CMC)
  T/C: 92 % of control
dose: 400.0 mg/kg/injection, schedule: Q01DX001 (ip), vehicle: carboxymethylcellulose (CMC)
  T/C: 102 % of control and 90 % of control
dose: 400.0 mg/kg/injection, schedule: Q04DX002 (ip), vehicle: carboxymethylcellulose (CMC)
  T/C: 86 % of control and 92 % of control
dose: 400.0 mg/kg/injection, schedule: Q04DX003 (ip), vehicle: carboxymethylcellulose (CMC)
  T/C: 101 % of control

## CCCCCCCC/C=C\CCCCCCCC(=O)OCCCCCCCCCCC
[8]
  T/C: 93 % of control
[9]
  T/C: 94 % of control
dose: 400.0 mg/kg/injection, schedule: Q01DX009 (ip), vehicle: other
  T/C: 100 % of control

## CC(C)(C)OB(OC(C)(C)C)OC(C)(C)C
dose: 25.0 mg/kg/injection, schedule: Q01DX009 (ip), vehicle: other
  T/C: 105 % of control
dose: 50.0 mg/kg/injection, schedule: Q01DX009 (ip), vehicle: other
  T/C: 98 % of control
[8]
  T/C: 109 % of control
dose: 100.0 mg/kg/injection, schedule: Q04DX003 (ip), vehicle: saline
  T/C: 98 % of control
[9]
  T/C: 104 % of control
dose: 200.0 mg/kg/injection, schedule: Q04DX003 (ip), vehicle: saline
  T/C: 102 % of control
dose: 400.0 mg/kg/injection, schedule: Q04DX003 (ip), vehicle: saline
  T/C: 109 % of control

## CC(=O)C1=CC(=O)NC(=O)C1C(=O)CC(C)C (stereo not given)
dose: 0.78 mg/kg/injection, schedule: Q01DX009 (ip), vehicle: Klucel (hydroxypropylcellulose) (HPC)
  T/C: 97 % of control
dose: 1.56 mg/kg/injection, schedule: Q01DX009 (ip), vehicle: Klucel (hydroxypropylcellulose) (HPC)
  T/C: 97 % of control
dose: 3.12 mg/kg/injection, schedule: Q01DX009 (ip), vehicle: Klucel (hydroxypropylcellulose) (HPC)
  T/C: 93 % of control
dose: 6.25 mg/kg/injection, schedule: Q01DX009 (ip), vehicle: Klucel (hydroxypropylcellulose) (HPC)
  T/C: 98 % of control
dose: 12.5 mg/kg/injection, schedule: Q01DX009 (ip), vehicle: Klucel (hydroxypropylcellulose) (HPC)
  T/C: 98 % of control
dose: 12.5 mg/kg/injection, schedule: Q04DX003 (ip), vehicle: Klucel (hydroxypropylcellulose) (HPC)
  T/C: 98 % of control
dose: 25.0 mg/kg/injection, schedule: Q04DX003 (ip), vehicle: Klucel (hydroxypropylcellulose) (HPC)
  T/C: 96 % of control

## CCOC(=O)C1(c2ccccc2)CCCNC1=O (stereo not given)
dose: 100.0 mg/kg/injection, schedule: Q04DX002 (ip), vehicle: saline
  T/C: 107 % of control
dose: 200.0 mg/kg/injection, schedule: Q04DX002 (ip), vehicle: saline
  T/C: 89 % of control
dose: 400.0 mg/kg/injection, schedule: Q04DX002 (ip), vehicle: saline
  T/C: 100 % of control

## CON=C(c1ccc(N(C)C)cc1)c1ccc(N(C)C)cc1
[1]
  T/C: 104 % of control
[3]
  T/C: 103 % of control
[4]
  T/C: 101 % of control
[5]
  T/C: 100 % of control
[6]
  T/C: 101 % of control
[7]
  T/C: 92 % of control

## c1ccc(-c2ccn(C3CCCCC3)c2-c2ccccc2)cc1
dose: 100.0 mg/kg/injection, schedule: Q01DX001 (ip), vehicle: saline with Tween-80
  T/C: 87 % of control
dose: 200.0 mg/kg/injection, schedule: Q01DX001 (ip), vehicle: saline with Tween-80
  T/C: 91 % of control
dose: 400.0 mg/kg/injection, schedule: Q01DX001 (ip), vehicle: saline with Tween-80
  T/C: 92 % of control

## CN=C(N)c1ccc(NC(=O)c2ccc(C(=O)Nc3ccc(C(N)=NC)cc3)c(Cl)c2)cc1
dose: 1.88 mg/kg/injection, schedule: Q01DX Z (ip), vehicle: saline
  T/C: 117 % of control
dose: 7.5 mg/kg/injection, schedule: Q01DX Z (ip), vehicle: saline
  T/C: 252 % of control
dose: 15.0 mg/kg/injection, schedule: Q01DX Z (ip), vehicle: saline
  T/C: 183 % of control
dose: 60.0 mg/kg/injection, schedule: Q01DX Z (oral), vehicle: saline
  T/C: 105 % of control
dose: 62.5 mg/kg/injection, schedule: Q## X010 (oral), vehicle: saline
  T/C: 102 % of control
dose: 120.0 mg/kg/injection, schedule: Q01DX Z (oral), vehicle: saline
  T/C: 102 % of control
dose: 125.0 mg/kg/injection, schedule: Q## X010 (oral), vehicle: saline
  T/C: 98 % of control
dose: 240.0 mg/kg/injection, schedule: Q01DX Z (oral), vehicle: saline
  T/C: 103 % of control
dose: 500.0 mg/kg/injection, schedule: Q## X010 (oral), vehicle: saline
  T/C: 102 % of control

## O=C(Nc1ccccc1)Nc1ccc(C(=O)c2ccccc2)cc1
dose: 20.0 mg/kg/injection, schedule: Q01DX005 (ip), vehicle: saline with Tween-80
  T/C: 100 % of control
dose: 40.0 mg/kg/injection, schedule: Q01DX005 (ip), vehicle: saline with Tween-80
  T/C: 89 % of control
dose: 80.0 mg/kg/injection, schedule: Q01DX005 (ip), vehicle: saline with Tween-80
  T/C: 97 % of control
dose: 160.0 mg/kg/injection, schedule: Q01DX005 (ip), vehicle: saline with Tween-80
  T/C: 90 % of control
dose: 320.0 mg/kg/injection, schedule: Q01DX005 (ip), vehicle: saline with Tween-80
  T/C: 95 % of control

## O=C(CCCC(=O)N/N=C/c1ccc(Cl)cc1)N/N=C\c1ccc(Cl)cc1
dose: 50.0 mg/kg/injection, schedule: Q01DX001 (ip), vehicle: other
  T/C: 102 % of control
dose: 200.0 mg/kg/injection, schedule: Q01DX001 (ip), vehicle: other
  T/C: 91 % of control
dose: 400.0 mg/kg/injection, schedule: Q01DX001 (ip), vehicle: other
  T/C: 91 % of control
